Test results taken from ChEMBL document CHEMBL5303573, “Mapping human microbiome drug metabolism by gut bacteria and their genes” (Nature, 2019).

Columns and labels:
[1] = The drug is tested on Bifidobacterium ruminantium strain: fecal isolate for biotransformation. The drug concentrations were measured before and after a 12-h incubation by liquid-chromatography-coupled mass spectrometry (LC–MS); details: 2 µM
[2] = The drug is tested on Collinsella aerofaciens strain: ATCC25986 for biotransformation. The drug concentrations were measured before and after a 12-h incubation by liquid-chromatography-coupled mass spectrometry (LC–MS); details: 2 µM
[3] = The drug is tested on Bacteroides cellulosilyticus strain: DSM14838 for biotransformation. The drug concentrations were measured before and after a 12-h incubation by liquid-chromatography-coupled mass spectrometry (LC–MS); details: 2 µM
[4] = The drug is tested on Bacteroides fragilis strain: HMW610 for biotransformation. The drug concentrations were measured before and after a 12-h incubation by liquid-chromatography-coupled mass spectrometry (LC–MS); details: 2 µM
[5] = The drug is tested on Bacteroides fragilis strain: HMW615 for biotransformation. The drug concentrations were measured before and after a 12-h incubation by liquid-chromatography-coupled mass spectrometry (LC–MS); details: 2 µM
[6] = The drug is tested on Bacteroides uniformis strain: ATCC8492 for biotransformation. The drug concentrations were measured before and after a 12-h incubation by liquid-chromatography-coupled mass spectrometry (LC–MS); details: 2 µM
[7] = The drug is tested on Bacteroides vulgatus strain: ATCC8482 for biotransformation. The drug concentrations were measured before and after a 12-h incubation by liquid-chromatography-coupled mass spectrometry (LC–MS); details: phocaeicola vulgatus, 2 µM
[8] = The drug is tested on Odoribacter splanchnicus strain: fecal isolate for biotransformation. The drug concentrations were measured before and after a 12-h incubation by liquid-chromatography-coupled mass spectrometry (LC–MS); details: 2 µM
[9] = The drug is tested on Anaerococcus hydrogenalis strain: DSM7454 for biotransformation. The drug concentrations were measured before and after a 12-h incubation by liquid-chromatography-coupled mass spectrometry (LC–MS); details: 2 µM
[10] = The drug is tested on Clostridium ramosum strain: DSM1402 for biotransformation. The drug concentrations were measured before and after a 12-h incubation by liquid-chromatography-coupled mass spectrometry (LC–MS); details: thomasclavelia ramosa, 2 µM
[11] = The drug is tested on Clostridium scindens strain: ATCC35704 for biotransformation. The drug concentrations were measured before and after a 12-h incubation by liquid-chromatography-coupled mass spectrometry (LC–MS); details: 2 µM
[12] = The drug is tested on Coprococcus comes strain: ATCC27758 for biotransformation. The drug concentrations were measured before and after a 12-h incubation by liquid-chromatography-coupled mass spectrometry (LC–MS); format: ADME; parameters: dose 2 uM, timepoint 0 vs 12 hours; details: 2 µM
[13] = The drug is tested on Dorea formicigenerans strain: ATCC27755 for biotransformation. The drug concentrations were measured before and after a 12-h incubation by liquid-chromatography-coupled mass spectrometry (LC–MS); details: 2 µM
[14] = bacteroides eggerthii, 12 h, 2 µM
Description: The drug is tested on Bacteroides eggerthii strain: DSM20697 for biotransformation. The drug concentrations were measured before and after a 12-h incubation by liquid-chromatography-coupled mass spectrometry (LC–MS)

[15] = bacteroides fragilis, 12 h, 2 µM
Description: The drug is tested on Bacteroides fragilis strain: NCTC 9343 for biotransformation. The drug concentrations were measured before and after a 12-h incubation by liquid-chromatography-coupled mass spectrometry (LC–MS)

[16] = parabacteroides johnsonii, 12 h, 2 µM
Description: The drug is tested on Parabacteroides johnsonii strain: DSM18315 for biotransformation. The drug concentrations were measured before and after a 12-h incubation by liquid-chromatography-coupled mass spectrometry (LC–MS)

[17] = enterocloster bolteae, 12 h, 2 µM
Description: The drug is tested on Clostridium bolteae strain: ATCCBAA-613 for biotransformation. The drug concentrations were measured before and after a 12-h incubation by liquid-chromatography-coupled mass spectrometry (LC–MS)

[18] = The drug is tested on Ruminococcus gnavus strain: ATCC29149 for biotransformation. The drug concentrations were measured before and after a 12-h incubation by liquid-chromatography-coupled mass spectrometry (LC–MS); details: mediterraneibacter gnavus, 2 µM
[19] = bifidobacterium adolescentis, 12 h, 2 µM
Description: The drug is tested on Bifidobacterium adolescentis strain: ATCC 15703 for biotransformation. The drug concentrations were measured before and after a 12-h incubation by liquid-chromatography-coupled mass spectrometry (LC–MS)

[20] = The drug is tested on Eubacterium ventriosum strain: ATCC27560 for biotransformation. The drug concentrations were measured before and after a 12-h incubation by liquid-chromatography-coupled mass spectrometry (LC–MS); format: ADME; parameters: dose 2 uM, timepoint 0 vs 12 hours; details: 2 µM

Row | Bacterial Biotransformation [1] | Bacterial Biotransformation [2] | Bacterial Biotransformation [3] | Bacterial Biotransformation [4] | Bacterial Biotransformation [5] | Bacterial Biotransformation [6] | Bacterial Biotransformation [7] | Bacterial Biotransformation [8] | Bacterial Biotransformation [9] | Bacterial Biotransformation [10] | Bacterial Biotransformation [11] | Bacterial Biotransformation [12] | Bacterial Biotransformation [13] | Bacterial Biotransformation [14] | Bacterial Biotransformation [15] | Bacterial Biotransformation [16] | Bacterial Biotransformation [17] | Bacterial Biotransformation [18] | Bacterial Biotransformation [19] | Bacterial Biotransformation [20] | SMILES
1 | Compound NOT metabolized | Compound NOT metabolized | Compound NOT metabolized | Compound metabolized | Compound metabolized | Compound metabolized | Compound metabolized | Compound metabolized | Compound NOT metabolized | Compound NOT metabolized | Compound metabolized | Compound metabolized | Compound NOT metabolized | Compound metabolized | Compound metabolized | Compound metabolized | Compound metabolized |  |  |  | CCCCC(=O)O[C@]1(C(=O)CO)[C@@H](C)C[C@H]2[C@@H]3CCC4=CC(=O)C=C[C@]4(C)[C@@]3(F)[C@@H](O)C[C@@]21C [BETAMETHASONE VALERATE]
2 | Compound NOT metabolized | Compound NOT metabolized | Compound NOT metabolized | Compound NOT metabolized | Compound NOT metabolized | Compound NOT metabolized | Compound NOT metabolized |  | Compound NOT metabolized | Compound NOT metabolized |  | Compound NOT metabolized | Compound NOT metabolized | Compound NOT metabolized | Compound NOT metabolized | Compound NOT metabolized | Compound NOT metabolized | Compound NOT metabolized | Compound NOT metabolized |  | COC(=O)[C@H]1[C@H]2C[C@@H]3c4[nH]c5cc(OC)ccc5c4CCN3C[C@H]2C[C@@H](OC(=O)c2cc(OC)c(OC)c(OC)c2)[C@@H]1OC [RESERPINE]
3 | Compound NOT metabolized | Compound NOT metabolized | Compound metabolized | Compound metabolized | Compound metabolized | Compound metabolized |  | Compound metabolized | Compound NOT metabolized | Compound metabolized | Compound NOT metabolized | Compound metabolized | Compound NOT metabolized | Compound metabolized | Compound metabolized | Compound metabolized | Compound metabolized | Compound metabolized | Compound NOT metabolized | Compound NOT metabolized | COc1c2occc2cc2ccc(=O)oc12 [METHOXSALEN]
